From PubChem BioAssay AID2060886 (Molecular Pharmacology Branch, DTP, NCI, 2025)

System: 653999-131-R-J2-PDC complex spheroids, growth inhibition
Test: Anticancer human tumor 653999-131-R-J2-PDC patient-derived lung adenocarcinoma cell line growth inhibition [RAS]
Details: for IC50: curve of first compound; for viability, T/C: stronger effect = lower value
Procedure, shortened: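 Agents were tested in combination matrices in half-log decrements from a top concentration at or near clinical Cmax (10 microM if undetermined). Targets were multi-cell spheroids of tumour lines plus HUVEC and MSC stromal cells.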
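Also: spheroids exposed to the agents for seven days before the readout.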

- IC50 (second compound 0.000949 µM): > 1000 nM
- IC50 (second compound 0.003 µM): > 1000 nM
- IC50 (second compound 0.00949 µM): > 1000 nM
- IC50 (second compound 0.03 µM): > 1000 nM
- IC50 (second compound 0.0949 µM): > 1000 nM
- IC50 (second compound 0.3 µM): > 1000 nM
SMILES: C=CC(=O)N1CCN(c2nc(OCC3CCCN3C)nc3c(F)c(-c4nc(N)cc(C)c4C(F)(F)F)c(Cl)cc23)C(C)C1 (configuration not stated) + CCn1c(-c2cccnc2C(C)OC)c2c3cc(ccc31)N1CCOC(CC(NC(=O)C(C(C)C)N(C)C(=O)C3(F)CCN(C(=O)C#CC(C)(C)N(C)C)CC3)C(=O)N3CCCC(N3)C(=O)OCC(C)(C)C2)C1
- viability, T/C (second compound 0.000949 µM, first compound 0.00316 µM): 94.1%
- viability, T/C (second compound 0.000949 µM, first compound 0.01 µM): 103%
- viability, T/C (second compound 0.000949 µM, first compound 0.0316 µM): 101%
- viability, T/C (second compound 0.000949 µM, first compound 0.1 µM): 98.3%
- viability, T/C (second compound 0.000949 µM, first compound 0.316 µM): 103%
- viability, T/C (second compound 0.000949 µM, first compound 1 µM): 91.5%
- viability, T/C (second compound 0.003 µM, first compound 0.00316 µM): 113%
- viability, T/C (second compound 0.003 µM, first compound 0.01 µM): 101%
- viability, T/C (second compound 0.003 µM, first compound 0.0316 µM): 102%
- viability, T/C (second compound 0.003 µM, first compound 0.1 µM): 98.9%
- viability, T/C (second compound 0.003 µM, first compound 0.316 µM): 99.8%
- viability, T/C (second compound 0.003 µM, first compound 1 µM): 104%
- viability, T/C (second compound 0.00949 µM, first compound 0.00316 µM): 93.2%
- viability, T/C (second compound 0.00949 µM, first compound 0.01 µM): 104%
- viability, T/C (second compound 0.00949 µM, first compound 0.0316 µM): 102%
- viability, T/C (second compound 0.00949 µM, first compound 0.1 µM): 96.9%
- viability, T/C (second compound 0.00949 µM, first compound 0.316 µM): 109%
- viability, T/C (second compound 0.00949 µM, first compound 1 µM): 106%
- viability, T/C (second compound 0.03 µM, first compound 0.00316 µM): 102%
- viability, T/C (second compound 0.03 µM, first compound 0.01 µM): 99.2%
- viability, T/C (second compound 0.03 µM, first compound 0.0316 µM): 104%
- viability, T/C (second compound 0.03 µM, first compound 0.1 µM): 91.6%
- viability, T/C (second compound 0.03 µM, first compound 0.316 µM): 114%
- viability, T/C (second compound 0.03 µM, first compound 1 µM): 101%
- viability, T/C (second compound 0.0949 µM, first compound 0.00316 µM): 84.2%
- viability, T/C (second compound 0.0949 µM, first compound 0.01 µM): 107%
- viability, T/C (second compound 0.0949 µM, first compound 0.0316 µM): 112%
- viability, T/C (second compound 0.0949 µM, first compound 0.1 µM): 107%
- viability, T/C (second compound 0.0949 µM, first compound 0.316 µM): 108%
- viability, T/C (second compound 0.0949 µM, first compound 1 µM): 102%
- viability, T/C (second compound 0.3 µM, first compound 0.00316 µM): 103%
- viability, T/C (second compound 0.3 µM, first compound 0.01 µM): 98.9%
- viability, T/C (second compound 0.3 µM, first compound 0.0316 µM): 111%
- viability, T/C (second compound 0.3 µM, first compound 0.1 µM): 108%
- viability, T/C (second compound 0.3 µM, first compound 0.316 µM): 104%
- viability, T/C (second compound 0.3 µM, first compound 1 µM): 96.8%
